Assay results reported in US5321043A, “Method of combatting transplant rejection” (The University of Melbourne, priority 1992, dated 1994).
Entries after “also recorded” stand apart in the source; their conditions may differ.

Columns and labels:
renal allograft = assay: Rabbit renal allograft survival; assay type: in vivo
Procedure: Left orthotopic renal transplantation was performed from New Zealand White rabbit donors into Anglo lop-ear recipients. See D. Francis et al., Aust. N. Z. J. Surgery 60, 45, 1990. Contralateral nephrectomy and graft biopsy were performed on the first post-operative day. Each recipient was subsequently dependent on its transplant for renal function. Serum creatinine (sCr) was measured every 48 hours and animals were culled once sCr had risen above 1.2 mMoles/1, taken as an arbitrary end-point representing graft failure. Graft biopsies were performed weekly and post-mortem to ensure that graft loss was secondary to rejection. Standard haematoxylin and eosin and Masson's trichrome stains were performed.
Compound A was provided as a powder which was dissolved in absolute ethanol to yield a 1 mg/ml solution. 50 μg/kg/day was administered subcutaneously for seven days commencing perioperatively. Ethanol (50 μl/kg/day) was administered in vehicle-only control animals.

[1] = test system: MLC response of responder lymphocytes to irradiated EBV-transformed lymphoblastoid cells; assay: Mixed lymphocyte culture (MLC) suppression by CyA and PG analogues, alone and combined (tritiated thymidine uptake); assay type: cell-based, human; conditions: for decrease in PG analogue concentration necessary for 50% MLC suppression when combined with CyA vs alone / interaction with CyA on MLC suppression: combination with CyA; for Suppression of MLC responses, mean % decrease of cpm vs drug-free cultures: mean of five donors
Procedure: Heparinised blood was obtained from five healthy donors without history of previous blood transfusion, pregnancy, or organ transplantation.
Prostaglandin (PG) analogues PGE1, PGE2, PGF2a, and PGI2 were supplied by the Upjohn Company (Kalamazoo, Mich.) in the form of 15-(s)-15-methyl PGE1, 16,16-dimethyl PGE2, 16,16-dimethyl PGF2α, and 9-deoxy-2,9a-methano-3-oxa-4,5,6-trinor-3,7-(1', 3'-interphenylene)-13,14'-dihydroprostaglandin FI (Compound A). Each was provided in methyl acetate at 10 mg/mL that was subsequently diluted, first with ethyl alcohol to a concentration of 1 mg/mL and thereafter with physiological saline to the concentration range required for the study, 10.0-0.001 μg/mL.
Responder lymphocytes were isolated from the healthy donor heparinised blood by density gradient separation and suspended in glutamine, antibiotic-supplemented RPMI medium containing 10% autologous responder lymphocyte donor serum at a concentration of 1 ×10^6 cells/mL. The stimulator population consisted of Epstein-Barr virus (EBV)-transformed lymphoblastoid cells that were irradiated (130 Gy) before suspension also at 1×10^6 cells/mL in glutamine, antibiotic-supplemented RPMI medium that contained 10% autologous responder lymphocyte donor serum.
Equal volumes (0.1 mL) of responder and stimulator cells were incubated in triplicate wells of microtitre trays with each of the following:
Following incubation at 37° C. (5% CO2) for 4 days, […] of tritiated thymidine was added to all cultures before further incubation for 6-8 hours, after which cells were automatically harvested (Skatron, Liebyen, Norway) on Titertek filter paper (Flow Laboratories, Irvine, Scotland) that was placed in vials containing liquid scintillation fluid for counting in a Beckman beta counter (Beckman, Brea, Calif.).

[2] = test system: New Zealand White rabbits; assay: Acute cyclosporine (CyA) nephrotoxicity in rabbits (serum creatinine, urea, histology); assay type: in vivo, rabbit; conditions: Compound A 50 ug/kg/day s.c. with CyA 100 mg/kg/day i.v.
Procedure: 50 ug/kg/day was administered subcutaneously for seven days. Ethanol (50 ul/kg/day) was administered in vehicle-only control animals.
Serum creatinine (Cr) and urea were measured prior to commencement of treatment (day 0) and 24 hours following treatment (day 7). Day 7 renal biopsies were stained with haematoxylin and eosin and Masson's trichrome.

[3] = Blood CyA levels after seven days treatment in nephrotoxicity study (Abbott TDX fluorescence immunoassay); assay type: in vivo, rabbit; conditions: CyA administered parenterally
Procedure: Compound A was provided as a powder which was dissolved in absolute ethanol to yield a […] solution. 50 ug/kg/day was administered subcutaneously for seven days. Ethanol (50 ul/kg/day) was administered in vehicle-only control animals.

[4] = PG analogue 0.01 μg/mL + CyA 0.001 μg/mL
[5] = PG analogue 0.01 μg/mL + CyA 0.01 μg/mL
[6] = PG analogue 0.01 μg/mL + CyA 0.1 μg/mL
[7] = PG analogue 0.01 μg/mL + CyA 1.0 μg/mL
[8] = PG analogue 0.01 μg/mL + CyA 10.0 μg/mL
[9] = PG analogue 0.1 μg/mL + CyA 0.001 μg/mL
[10] = PG analogue 0.1 μg/mL + CyA 0.01 μg/mL
[11] = PG analogue 0.1 μg/mL + CyA 0.1 μg/mL
[12] = PG analogue 0.1 μg/mL + CyA 1.0 μg/mL
[13] = PG analogue 0.1 μg/mL + CyA 10.0 μg/mL
[14] = PG analogue 1.0 μg/mL + CyA 0.001 μg/mL
[15] = PG analogue 1.0 μg/mL + CyA 0.01 μg/mL
[16] = PG analogue 1.0 μg/mL + CyA 0.1 μg/mL
[17] = PG analogue 1.0 μg/mL + CyA 1.0 μg/mL
[18] = PG analogue 1.0 μg/mL + CyA 10.0 μg/mL
[19] = PG analogue 10.0 μg/mL + CyA 0.001 μg/mL
[20] = PG analogue 10.0 μg/mL + CyA 0.01 μg/mL
[21] = PG analogue 10.0 μg/mL + CyA 0.1 μg/mL
[22] = PG analogue 10.0 μg/mL + CyA 1.0 μg/mL
[23] = PG analogue 10.0 μg/mL + CyA 10.0 μg/mL

Row | Compound | Suppression of MLC responses by CyA in combination with PG analogue [1, 4] [%] | Suppression of MLC responses by CyA in combination with PG analogue [1, 5] [%] | Suppression of MLC responses by CyA in combination with PG analogue [1, 6] [%] | Suppression of MLC responses by CyA in combination with PG analogue [1, 7] [%] | Suppression of MLC responses by CyA in combination with PG analogue [1, 8] [%] | Suppression of MLC responses by CyA in combination with PG analogue [1, 9] [%] | Suppression of MLC responses by CyA in combination with PG analogue [1, 10] [%] | Suppression of MLC responses by CyA in combination with PG analogue [1, 11] [%] | Suppression of MLC responses by CyA in combination with PG analogue [1, 12] [%] | Suppression of MLC responses by CyA in combination with PG analogue [1, 13] [%] | Suppression of MLC responses by CyA in combination with PG analogue [1, 14] [%] | Suppression of MLC responses by CyA in combination with PG analogue [1, 15] [%] | Suppression of MLC responses by CyA in combination with PG analogue [1, 16] [%] | Suppression of MLC responses by CyA in combination with PG analogue [1, 17] [%] | Suppression of MLC responses by CyA in combination with PG analogue [1, 18] [%] | Suppression of MLC responses by CyA in combination with PG analogue [1, 19] [%] | Suppression of MLC responses by CyA in combination with PG analogue [1, 20] [%] | Suppression of MLC responses by CyA in combination with PG analogue [1, 21] [%] | Suppression of MLC responses by CyA in combination with PG analogue [1, 22] [%] | Suppression of MLC responses by CyA in combination with PG analogue [1, 23] [%] | further results
1 | CCCCC[C@H](O)CC[C@@H]1[C@H]2Cc3cccc(OCC(=O)O)c3C[C@H]2C[C@H]1O [Compound A, 9-deoxy-2',9α-methano-3-oxa-4,5,6-trinor-3,7-(1',3'-interphenylene)-13, 14--dihydro-prostaglandinF1] | 27 | 58 | 75 | 86 | 87 | 68 | 76 | 86 | 85 | 85 | 81 | 85 | 85 | 85 | 88 | 86 | 88 | 85 | 86 | 86 | effect on renal allograft survival (renal allograft; Compound A 50 μg/kg/day s.c., CyA 20 mg/kg where combined): prolonged allograft survival over that of untreated animals; Median Graft Survival (renal allograft; Compound A 50 μg/kg/day subcutaneously for seven days, no CyA): 13.5 days; decrease in PG analogue concentration necessary for 50% MLC suppression when combined with CyA vs alone [1]: 10 fold; interaction with CyA on MLC suppression [1]: a synergy that parallels that observed between CyA and the PGE analogues; Suppression of MLC responses, mean % decrease of cpm vs drug-free cultures ([1]; single agent at 0.001 μg/mL): 10%; Suppression of MLC responses, mean % decrease of cpm vs drug-free cultures ([1]; single agent at 0.01 μg/mL): 22%; Suppression of MLC responses, mean % decrease of cpm vs drug-free cultures ([1]; single agent at 0.1 μg/mL): 51%; Suppression of MLC responses, mean % decrease of cpm vs drug-free cultures ([1]; single agent at 1.0 μg/mL): 61%; Suppression of MLC responses, mean % decrease of cpm vs drug-free cultures ([1]; single agent at 10.0 μg/mL): 77%; times more effective in suppressing the MLC response than PGE1 and PGE2 ([1]; single agents): 10 times; effect on renal function, as measured by serum Cr and urea [2]: significant protective effect on renal function; effect on renal function, as measured by serum Cr and urea ([2]; listed as PGI2 analogue): significant protective affect on renal function; effect on CyA bioavailability [3]: without effecting CyA bioavailability
2 | CCCCC(C)(C)[C@H](O)/C=C/[C@H]1[C@H](O)CC(=O)[C@@H]1C/C=C\CCCC(=O)O [PGE2, 16,16-dimethyl PGE2] | 23 | 49 | 55 | 63 | 68 | 26 | 52 | 58 | 66 | 70 | 58 | 56 | 67 | 80 | 85 | 60 | 71 | 72 | 88 | 86 | decrease in PG analogue concentration necessary for 50% MLC suppression when combined with CyA vs alone [1]: 100 fold; Suppression of MLC responses, mean % decrease of cpm vs drug-free cultures ([1]; single agent at 0.001 μg/mL): 6%; Suppression of MLC responses, mean % decrease of cpm vs drug-free cultures ([1]; single agent at 0.01 μg/mL): 18%; Suppression of MLC responses, mean % decrease of cpm vs drug-free cultures ([1]; single agent at 0.1 μg/mL): 32%; Suppression of MLC responses, mean % decrease of cpm vs drug-free cultures ([1]; single agent at 1.0 μg/mL): 51%; Suppression of MLC responses, mean % decrease of cpm vs drug-free cultures ([1]; single agent at 10.0 μg/mL): 58%; times more effective in suppressing the MLC response than the PGF2a analogue ([1]; single agents): 10 times
3 | CCCCC(C)(C)[C@H](O)/C=C/[C@@H]1[C@@H](C/C=C\CCCC(=O)O)[C@@H](O)C[C@H]1O [PGF2α, 16,16-dimethyl PGF2α] | 14 | 25 | 55 | 70 | 86 | 14 | 24 | 55 | 72 | 86 | 31 | 30 | 58 | 76 | 85 | 58 | 65 | 69 | 79 | 86 | interaction with CyA on MLC suppression ([1]; listed as PGF2a): no influence further than that exerted when each was added alone; also recorded: no indication of synergistic interaction with CyA; minimum concentration which alone induced 50% MLC inhibition ([1]; single agent): 10.0 µg/mL; Suppression of MLC responses, mean % decrease of cpm vs drug-free cultures ([1]; single agent at 0.001 μg/mL): 0%; Suppression of MLC responses, mean % decrease of cpm vs drug-free cultures ([1]; single agent at 0.01 μg/mL): 4%; Suppression of MLC responses, mean % decrease of cpm vs drug-free cultures ([1]; single agent at 0.1 μg/mL): 16%; Suppression of MLC responses, mean % decrease of cpm vs drug-free cultures ([1]; single agent at 1.0 μg/mL): 29%; Suppression of MLC responses, mean % decrease of cpm vs drug-free cultures ([1]; single agent at 10.0 μg/mL): 50%
